The test addresses DNA-PK kinase (Homo sapiens (Human), UniProt P78527). In words: biochemical.

pIC50: −log10 of the molar value.

The results in this text go back to US12552793B2, “Purine derivative and medical use thereof” (KANGBAIDA (SICHUAN) BIOTECHNOLOGY CO., LTD., priority 2019, dated 2026).
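Further: enzyme inhibition of DNA-PK with kinase activity read out by chemiluminescence on a microplate reader after adding a kinase detection reagent.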

Method: Inhibition of DNA-PK Kinase
The inhibitory activity of the compounds against DNA-PK kinase was determined using a DNA-PK kinase assay kit (purchased from Promega, Cat. No. V4107, Batch No. 0000366495). The results were quantified using chemiluminescence, specifically as follows: • i. ADP-fluorescence standard curves at different concentrations were constructed according to the instructions of the kit; • ii. reaction systems (5 L) were prepared in a 384-well white plate; 1 μL of a compound (concentration gradients 1 μM, 200 nM, 40 nM, 8 nM, 1.6 nM, 0.32 nM, 0.064 nM and 0.013 nM were set for each compound), 20 units of DNA-PK kinase, 0.2 μg/μL substrate, 10 μg/μL DNA, 50 μM ATP and 1% DMSO were successively added to each well; • iii. the mixtures were well mixed, centrifuged (1000 rpm, 30 s), and incubated at 37° C. for 60 min; • iv. the reactions were terminated by adding 5 μL of ADP-Glo™ Reagent; the mixtures were well mixed, centrifuged (1000 rpm, 30 s), and incubated at room temperature for 40 min; • v. 10 μL of Kinase Detection Reagent was added; the mixtures were well mixed by shaking, centrifuged (1000 rpm, 30 s), and incubated at room temperature for 30 min; • vi. fluorescence values were measured using a microplate reader (Thermo fisher, Varioskan LUX). IC50 was calculated using GraphPad Prism 8.

As for `CNC(=O)c1cc(C)c(Nc2ncc3c(n2)n(C24CC5CC(CC(O)(C5)C2)C4)c(=O)n3C)cn1` [Compound 15, 5-((9-(3-Hydroxyadamantan-1-yl)-7-methyl-8-oxo-8,9-dihydro-7H-purin-2-yl)amino)-N,4-dimethylpicolinamide], the pIC50 (as a rule, −log10 of the IC50, conventionally taken in molar units) is 8.96.
